Measurements published in publication PMC8198214, “Synthesis and Biological Evaluation of Spirocyclic Chromane Derivatives as a Potential Treatment of Prostate Cancer” (Molecules, 2021).

Test system: 22Rv1 cells
Test: 22Rv1 cell viability (CCK-8) antiproliferation assay
Assay type: cell-based, human
Conditions: for IC50: 22Rv1 cells, means of two independent experiments (n = 2)
Procedure: The 22Rv1 prostate cancer cell line in this study was purchased from KeyGEN Biotech Co. Ltd. (Nanjing, Jiangsu, China ). The cells were cultured in RPMI 1640 medium and maintained at 37 °C in a 5% CO2 incubator. For the cell viability assay, the cell slurry was diluted to required volume at a density of 80,000 cells/mL. Then, 100 μL the cell slurry was seeded in each well of the 96-well plate. The cells were incubated for 72 h at 37 °C, 5% CO2 under humidified condition. The reference and test compounds solution (200×) were prepared with DMSO and were diluted from 200× to 1× with culture medium (RPMI 1640 medium without phenol red and containing 10% fetal calf serum, penicillin (100U/mL), streptomycin (100 μg/mL) and 0.1 nM DHT). The previous culture medium was removed and 200 μL/well of the compound solution (1×) was added to assay plate (final conc: 1×). Then the cells were incubated at 37 °C, 5% CO2 under humidified conditions. 5 Days later, the CCK-8 assay reagent was equilibrated at room temperature for 30 min prior to use. CCK-8 was mixed with fresh medium at a ratio of 1:10 and 100 μL of the diluted CCK8 reagent was added to each well and the plates were incubated for 4.5 h at 37 °C. Finally, absorbance value (OD value) was read on plate reader. GraphPad Prism v5.0 software was used to process data for IC50.

| IC50 (Table 1) [nM] | IC50 (Homo sapiens, Table 2) [nM] | Molecule | further results |
| --- | --- | --- | --- |
| – | 1370 | C[C@H](N(Cc1ccc2c(c1)OC(F)(F)O2)C(=O)CN1C(=O)O[C@@]2(CCc3cc(-c4cnn(C)c4)ccc32)C1=O)C(F)(F)F [B1, N-((2,2-Difluorobenzo[d][1,3]dioxol-5-yl)methyl)-2-((R)-5-(1-methyl-1H-pyrazol-4-yl)-2′,4′-dioxo-2,3-dihydrospiro[indene-1,5′-oxazolidin]-3′-yl)-N-((S)-1,1,1-trifluoropropan-2-yl)acetamide] | fold less potency than A-485 (22Rv1 cell antiproliferation): 10 fold |
| – | 252 | Cn1cc(-c2ccc3c(c2)CCC32OC(=O)N(CC(=O)N(Cc3ccc(F)cc3)[C@H]3CCc4ccccc43)C2=O)cn1 (stereo partly drawn) [B4, N-((S)-2,3-Dihydro-1H-inden-1-yl)-N-(4-fluorobenzyl)-2-(5-(1-methyl-1H-pyrazol-4-yl)-2′,4′-dioxo-2,3-dihydrospiro[indene-1,5′-oxazolidin]-3′-yl)acetamide] | – |
| – | 406 | CNC(=O)Nc1ccc2c(c1)CCC21OC(=O)N(CC(=O)N(Cc2ccc(F)cc2)[C@H]2CCc3ccccc32)C1=O (stereo partly drawn) [B5, N-((S)-2,3-Dihydro-1H-inden-1-yl)-N-(4-fluorobenzyl)-2-(5-(3-methylureido)-2′,4′-dioxo-2,3-dihydrospiro[indene-1,5′-oxazolidin]-3′-yl)acetamide] | – |
| – | 431 | CC(C)(O)Cn1cc(-c2ccc3c(c2)CCC32OC(=O)N(CC(=O)N(Cc3ccc(F)cc3)[C@H]3CCc4ccccc43)C2=O)cn1 (stereo partly drawn) [B6, N-((S)-2,3-Dihydro-1H-inden-1-yl)-N-(4-fluorobenzyl)-2-(5-(1-(2-hydroxy-2-methylpropyl)-1H-pyrazol-4-yl)-2′,4′-dioxo-2,3-dihydrospiro[indene-1,5′-oxazolidin]-3′-yl)acetamide] | – |
| – | 270 | CNC(=O)Cn1cc(-c2ccc3c(c2)CCC32OC(=O)N(CC(=O)N(Cc3ccc(F)cc3)[C@H]3CCc4ccccc43)C2=O)cn1 (stereo partly drawn) [B7, N-((S)-2,3-Dihydro-1H-inden-1-yl)-N-(4-fluorobenzyl)-2-(5-(1-(2-(methylamino)-2-oxoethyl)-1H-pyrazol-4-yl)-2′,4′-dioxo-2,3-dihydrospiro[indene-1,5′-oxazolidin]-3′-yl)acetamide] | – |
| – | 334 | CNC(=O)Cn1cc(-c2ccc3c(c2)CCC32OC(=O)N(CC(=O)N(Cc3ccc(F)cc3)[C@H]3CCc4cc(F)ccc43)C2=O)cn1 (stereo partly drawn) [B9, N-((S)-5-Fluoro-2,3-dihydro-1H-inden-1-yl)-N-(4-fluorobenzyl)-2-(5-(1-(2-(methylamino)-2-oxoethyl)-1H-pyrazol-4-yl)-2′,4′-dioxo-2,3-dihydrospiro[indene-1,5′-oxazolidin]-3′-yl)acetamide] | – |
| – | 1660 | CNC(=O)Cn1cc(-c2ccc3c(c2)CCC32OC(=O)N(CC(=O)N(Cc3ccc(F)cc3)[C@@H]3CCc4ccccc43)C2=O)cn1 (stereo partly drawn) [B10, N-((R)-2,3-Dihydro-1H-inden-1-yl)-N-(4-fluorobenzyl)-2-(5-(1-(2-(methylamino)-2-oxoethyl)-1H-pyrazol-4-yl)-2′,4′-dioxo-2,3-dihydrospiro[indene-1,5′-oxazolidin]-3′-yl)acetamide] | – |
| – | 340 | CNC(=O)Cn1cc(-c2ccc3c(c2)CCC32OC(=O)N(CC(=O)N(Cc3ccc(F)cc3)[C@@H]3CCc4ncccc43)C2=O)cn1 (stereo partly drawn) [B11, N-((R)-6,7-Dihydro-5H-cyclopenta[b]pyridin-5-yl)-N-(4-fluorobenzyl)-2-(5-(1-(2-(methylamino)-2-oxoethyl)-1H-pyrazol-4-yl)-2′,4′-dioxo-2,3-dihydrospiro[indene-1,5′-oxazolidin]-3′-yl)acetamide] | fold increased potency versus B10 (22Rv1 cell antiproliferation): 5 fold |
| – | 265 | CNC(=O)Cn1cc(-c2ccc3c(c2)CCC32OC(=O)N(CC(=O)N(Cc3ccc(F)cn3)[C@@H]3CCc4ccccc43)C2=O)cn1 (stereo partly drawn) [B12, N-((R)-2,3-Dihydro-1H-inden-1-yl)-N-((5-fluoropyridin-2-yl)methyl)-2-(5-(1-(2-(methylamino)-2-oxoethyl)-1H-pyrazol-4-yl)-2′,4′-dioxo-2,3-dihydrospiro[indene-1,5′-oxazolidin]-3′-yl)acetamide] | fold increased potency versus B10 (22Rv1 cell antiproliferation): 5 fold |
| – | 3470 | CNC(=O)Cn1cc(-c2ccc3c(c2)CCC32OC(=O)N(CC(=O)N(Cc3ccc(F)cn3)[C@@H]3CCc4cccnc43)C2=O)cn1 (stereo partly drawn) [B13, N-((R)-6,7-Dihydro-5H-cyclopenta[b]pyridin-7-yl)-N-((5-fluoropyridin-2-yl)methyl)-2-(5-(1-(2-(methylamino)-2-oxoethyl)-1H-pyrazol-4-yl)-2′,4′-dioxo-2,3-dihydrospiro[indene-1,5′-oxazolidin]-3′-yl)acetamide] | – |
| – | 450 | CNC(=O)Cn1cc(-c2ccc3c(c2)CCC32OC(=O)N(CC(=O)N(Cc3ccc(F)cc3)[C@H]3CCCc4ccccc43)C2=O)cn1 (stereo partly drawn) [B15, N-(4-fluorobenzyl)-2-(5-(1-(2-(methylamino)-2-oxoethyl)-1H-pyrazol-4-yl)-2′,4′-dioxo-2,3-dihydrospiro[indene-1,5′-oxazolidin]-3′-yl)-N-((S)-1,2,3,4-tetrahydronaphthalen-1-yl)acetamide] | – |
| – | 8700 | CNC(=O)Nc1ccc2c(c1)CCC21OC(=O)N(CC(=O)N2CCCc3ccc(C(F)F)cc32)C1=O (stereo not drawn) [B17, 1-(3′-(2-(7-(Difluoromethyl)-3,4-dihydroquinolin-1(2H)-yl)-2-oxoethyl)-2′,4′-dioxo-2,3-dihydrospiro[indene-1,5′-oxazolidin]-5-yl)-3-methylurea] | – |
| – | > 25000 | Cn1cc(-c2ccc3c(c2)CCC32OC(=O)N(CC(=O)N3CCn4c(nnc4C(F)(F)F)C3)C2=O)cn1 (stereo not drawn) [B18, 5-(1-Methyl-1H-pyrazol-4-yl)-3′-(2-oxo-2-(3-(trifluoromethyl)-5,6-dihydro-[1,2,4]triazolo[4,3-a]pyrazin-7(8H)-yl)ethyl)-2,3-dihydrospiro[indene-1,5′-oxazolidine]-2′,4′-dione] | – |

Continued, molecule first:

| Molecule | IC50 (Table 1) [nM] | IC50 (Homo sapiens, Table 2) [nM] | further results |
| --- | --- | --- | --- |
| 2-(5′-(3-Cyclopropylureido)-2′′,4′′-dioxo-2′H-dispiro[cyclopropane-1,3′-indene-1′,5′′-oxazolidin]-3′′-yl)-N-(4-fluorobenzyl)-N-((S)-1,1,1-trifluoropropan-2-yl)acetamide [A3] | 798 | – | – |
| CN1C2CCC1CC(N(Cc1ccc(F)cc1)C(=O)CN1C(=O)O[C@@]3(CCc4cc(-c5cnn(C)c5)ccc43)C1=O)C2 (stereo partly drawn) [B2, N-(4-Fluorobenzyl)-2-((R)-5-(1-methyl-1H-pyrazol-4-yl)-2′,4′-dioxo-2,3-dihydrospiro[indene-1,5′-oxazolidin]-3′-yl)-N-(8-methyl-8-azabicyclo[3.2.1]octan-3-yl)acetamide] | – | 37600 | – |
| Cn1cc(-c2ccc3c(c2)CCC32OC(=O)N(CC(=O)N(Cc3ccc(F)cc3)[C@@H]3CN4CCC3CC4)C2=O)cn1 (stereo partly drawn) [B3, N-(4-Fluorobenzyl)-2-(5-(1-methyl-1H-pyrazol-4-yl)-2′,4′-dioxo-2,3-dihydrospiro [indene-1,5′-oxazolidin]-3′-yl)-N-((S)-quinuclidin-3-yl)acetamide] | – | > 25000 | – |
| N-(4-Fluorobenzyl)-2-(2-methyl-2′,4′-dioxo-2,4,8,9-tetrahydrospiro[cyclopenta [6,7]chromeno [3,4-c]pyrazole-7,5′-oxazolidin]-3′-yl)-N-((S)-1,1,1-trifluoropropan-2-yl)acetamide [A4] | > 100000 | – | – |
| N-(4-Fluorobenzyl)-2-(3-(1-(2-(methylamino)-2-oxoethyl)-1H-pyrazol-4-yl)-2′,4′-dioxo-5,6-dihydrospiro[cyclopenta[b]pyridine-7,5′-oxazolidin]-3′-yl)-N-((S)-1,1,1-trifluoropropan-2-yl)acetamide [A5] | 16100 | – | – |
| N-(4-Fluorobenzyl)-2-(3-(1-(2-(methylamino)-2-oxoethyl)-1H-pyrazol-4-yl)-2′,4′-dioxospiro[fluorene-9,5′-oxazolidin]-3′-yl)-N-((S)-1,1,1-trifluoropropan-2-yl)acetamide [A1] | > 100000 | – | – |
| N-(4-Fluorobenzyl)-2-(3-(1-methyl-1H-pyrazol-4-yl)-2′,4′-dioxo-5,6-dihydrospiro [cyclopenta[c]pyridine-7,5′-oxazolidin]-3′-yl)-N-((S)-1,1,1-trifluoropropan-2-yl)acetamide [A6] | 27000 | – | – |
| N-(4-Fluorobenzyl)-2-(5-(1-(2-(methylamino)-2-oxoethyl)-1H-pyrazol-4-yl)-2′,5′-dioxo-2,3-dihydrospiro[indene-1,3′-pyrrolidin]-1′-yl)-N-((S)-1,1,1-trifluoropropan-2-yl)acetamide [A7] | 1800 | – | – |
| N-(4-Fluorobenzyl)-2-(5-(3-methylureido)-2′,5′-dioxo-2,3-dihydrospiro[indene-1,3′-pyrrolidin]-1′-yl)-N-((S)-1,1,1-trifluoropropan-2-yl)acetamide [A8] | 6410 | – | – |
| N-(4-Fluorobenzyl)-2-(5′-(3-methylureido)-2′′,4′′-dioxo-2′H-dispiro[cyclopropane-1,3′-indene-1′,5′′-oxazolidin]-3′′-yl)-N-((S)-1,1,1-trifluoropropan-2-yl)acetamide [A2] | 351 | – | – |
| N-(4-Fluorobenzyl)-N-((S)-1-methyl-4,5,6,7-tetrahydro-1H-indazol-4-yl)-2-(5-(1-(2-(methylamino)-2-oxoethyl)-1H-pyrazol-4-yl)-2′,4′-dioxo-2,3-dihydrospiro [indene-1,5′-oxazolidin]-3′-yl)acetamide [B14] | – | – | IC50 (Table 2): 1090 nM |
